The target in experiment [1] is T1, recombinant human FLAP protein (Homo sapiens, UniProt P20292).
T1 construct: made in house; host or cells: Sf9 insect cells (membrane fraction, 100,000 x g pellet)
T1 sequence (P20292 1-161): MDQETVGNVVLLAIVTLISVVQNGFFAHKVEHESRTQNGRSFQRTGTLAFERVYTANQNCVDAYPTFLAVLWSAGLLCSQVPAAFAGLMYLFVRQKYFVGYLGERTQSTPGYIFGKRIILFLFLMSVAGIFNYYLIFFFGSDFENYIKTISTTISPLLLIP
Kind of experiment: FLAP binding assay (SPA, displacement of [125I]L-691,831). As to conditions: membranes of sf9 cells expressing human FLAP, [125I]L-691,831 probe; read-out: hFLAP binding IC50. The method, boiled down: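 Membranes from sf9 cells expressing human FLAP (5 μg/well) were bound to WGA SPA beads (200 μg/well). Nonspecific binding was defined with 10 μM unlabelled L-691,831.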
In general terms: Displacement assays read how much labelled ligand stays bound in the presence of the test substance.

Experiment [2] relates to synthesis of LTB4 in human whole blood. Kind of experiment: Human whole blood LTB4 production inhibition assay. It is filed as cell-based. As to conditions: heparinized human whole blood, calcimycin 20 μM, plasma LTB4; read-out: HuWB IC50. How it is done:
Compounds are additionally tested in a human whole blood assay to determine their ability to inhibit the synthesis of LTB4 in a cellular system. Compounds are combined with heparinized human whole blood and incubated for 15 minutes at 37° C. Calcimycin (20 μM final, prepared in phosphate-buffered saline, pH 7.4) is then added and the mixture is incubated for another 30 minutes at 37° C. The samples are centrifuged for 5 min at low speed (1500×g) and the plasma layer is removed. Plasma LTB4 concentrations are then measured using an antibody-based homogenous time-resolved fluorescence method (CisBio, Bedford, Mass.).

Data on 28 compounds can be found in US9073895B2 (Boehringer Ingelheim International GmbH, priority 2010, dated 2015).

pIC50: −log10 of the molar value. Where only a bound is given, the exact number is not on record here.

The pIC50 is the negative decadic logarithm of the IC50, by convention in mol/L. For the compound `CC(C)(C)c1nsc(NC(=O)C2(c3ccc(-c4cnc(N)nc4)cc3)CCOCC2)n1` [Example 124, 4-[4-(2-aminopyrimidin-5-yl)phenyl]-N-(3-tert-butyl-1,2,4-thiadiazol-5-yl)tetrahydro-2H-pyran-4-carboxamide], the pIC50 in experiment [1] is 7.11; in experiment [2] it was 5.66.
Taken in the same sequence, the figures for `Nc1ncc(-c2ccc(C3(C(=O)Nc4ccccc4)CCC3)cc2)cn1` [Example 203, 1-[4-(2-aminopyrimidin-5-yl)phenyl]-N-phenylcyclobutanecarboxamide] were 7.86 and 5.49.
Take `Nc1ncc(-c2ccc(C3(C(=O)Nc4ccc(N5CCOCC5)cc4)CCOCC3)cc2)cn1` [Example 147, 4-[4-(2-aminopyrimidin-5-yl)phenyl]-N-[4-(mopholin-4-yl)phenyl]tetrahydro-2H-pyran-4-carboxamide]: the figures for the pIC50 in experiment [1] and in experiment [2] were 6.31 and 5.54, respectively.
`CS(=O)(=O)c1ccc(NC(=O)C2(c3ccc(-c4cnc(N)nc4)cc3)CCC2)cc1` [Example 233, 1-[4-(2-aminopyrimidin-5-yl)phenyl]-N-[4-(methylsulfonyl)phenyl]cyclobutane-carboxamide]: the results for the pIC50 in experiment [1] and in experiment [2] were 8.19 and 6.80, respectively.
For `COC(=O)c1ccc(NC(=O)C2(c3ccc(-c4cnc(N)nc4)cc3)CCC2)nc1` [Example 95, methyl 6-[({1-[4-(2-aminopyrimidin-5-yl)phenyl]cyclobuyl}carbonyl)amino]pyridine-3-carboxylate] the same measures were 8.63 and 6.69.
Taken in the same sequence, the figures for `Nc1ncc(-c2ccc(C3(C(=O)Nc4cccc(OCc5ccccc5)c4)CCOCC3)cc2)cn1` [Example 61, 4-[4-(2-aminopyrimidin-5-yl)phenyl]-N-[3-(benzyloxy)phenyl]tetrahydro-2H-pyran-4-carboxamide] were 7.03 and < 5.52.
For `Nc1ncc(-c2ccc(C3(C(=O)Nc4ccc(-c5ccncc5)cc4)CCOCC3)cc2)cn1` [Example 34, 4-[4-(2-aminopyrimidin-5-yl)phenyl]-N-[4-(pyridin-4-yl)phenyl]tetrahydro-2H-pyran-4-carboxamide] the same measures were 7.93 and 6.79.
For the compound `Cc1nccn1-c1ccc(NC(=O)C2(c3ccc(-c4cnc(N)nc4)cc3)CCC2)cc1` [Example 229, 1-[4-(2-aminopyrimidin-5-yl)phenyl]-N-[4-(2-methyl-1H-imidazol-1-yl)phenyl]cyclobutanecarboxamide], the negative-log IC50 (pIC50) was 8.18 in experiment [1] and 6.82 in experiment [2].
Turning to `COc1ccc(-c2ccc(NC(=O)C(C)(c3ccc(-c4cnc5[nH]ccc5c4)cc3)C(C)C)nc2)cn1` (centres unmarked) [Example 166, N-(6'-methoxy-3,3'-bipyridin-6-yl)-2,3-dimethyl-2-[4-(1H-pyrolo[2,3-b]pyridin-5-yl)phenyl]butanamide], the pIC50 in experiment [1] was 8.52; in experiment [2], 6.48.
Taken in the same sequence, the figures for `COc1ccc(NC(=O)C2(c3ccc(-c4cnc(N)nc4)cc3)CCC2)nc1` [Example 217, 1-[4-(2-aminopyrimidin-5-yl)phenyl]-N-(5-methoxypyridin-2-yl)cyclobutanecarboxamide] were 8.08 and 6.41.
Taken in the same sequence, the figures for `CC(C)C(C)(C(=O)Nc1cccnc1)c1ccc(-c2cnc3[nH]ccc3c2)cc1` (centres unmarked) [Example 180, 2,3-dimethyl-N-(pyridin-3-yl)-2-[4-(1H-pyrrolo[2,3-b]pyridin-5-yl)phenyl]butanamide] were 8.20 and 6.40.
As for `CCN(CC)S(=O)(=O)c1cccc(NC(=O)C2(c3ccc(-c4cnc(N)nc4)cc3)CCOCC2)c1` [Example 78, 4-[4-(2-aminopyrimidin-5-yl)phenyl]-N-[3-(diethylsulfamoyl)phenyl] tetrahydro-2H-pyran-4-carboxamide], the results for the pIC50 in experiment [1] and in experiment [2] were 6.95 and < 5.52, respectively.
As to `CN1CCN(c2cc(NC(=O)C3(c4ccc(-c5cnc(N)nc5)cc4)CCC3)ccn2)CC1` [Example 252, 1-[4-(2-aminopyrimidin-5-yl)phenyl]-N-[2-(4-methylpiperazin-1-yl)pyridin-4-yl]cyclobutanecarboxamide], the pIC50 was 8.13 in experiment [1] and 6.64 in experiment [2].
For the compound `Nc1ncc(-c2ccc(C3(C(=O)Nc4ccc(-n5ccnc5)cc4)CCOCC3)cc2)cn1` [Example 154, 4-[4-(2-aminopyrimidin-5-yl)phenyl]-N-[4-(1H-imidazol-1-yl)phenyl]tetrahydro-2H-pyran-4-carboxamide], the pIC50 in experiment [1] is 7.20; in experiment [2] it was 5.86.
In the case of `Nc1ncc(-c2ccc(C3(C(=O)Nc4ccccn4)CCOCC3)cc2)cn1` [Example 138, 4-[4-(2-aminopyrimidin-5-yl)phenyl]-N-(pyridin-2-yl)tetrahydro-2H-pyran-4-carboxamide], the pIC50 in experiment [1] is 6.52; in experiment [2], 4.93.
Taken in the same sequence, the figures for `O=C(Nc1ccncn1)C1(c2ccc(-c3cnc4[nH]ccc4c3)cc2)CCC1` [Example 188, N-(pyrimidin-4-yl)-1-[4-(1H-pyrrolo[2,3-b]pyridin-5-yl)phenyl]cyclobutanecarboxamide] were 8.78 and 6.89.
Taken in the same sequence, the figures for `CS(=O)(=O)c1ccc(NC(=O)C2(c3ccc(-c4cnc(N)nc4)cn3)CCC2)cc1` [Example 107, 1-[5-(2-aminopyrimidin-5-yl)pyridin-2-yl]-N-[4-(methylsulfonyl)phenyl]cyclobutane-carboxamide] were 7.06 and 5.96.
With `COc1ccc(NC(=O)C2(c3ccc(-c4cnc(N)nc4)cc3)CCOCC2)cn1` [Example 2, 4-[4-(2-aminopyrimidin-5-yl)phenyl]-N-(6-methoxypyridin-3-yl)tetrahydro-2H-pyran-4-carboxamide], the values for the negative logarithm of the IC50 (pIC50) in experiment [1] and in experiment [2] were 6.68 and 5.86, respectively.
For `Nc1ncc(-c2ccc(C3(C(=O)Nc4ccc(CN5CCS(=O)(=O)CC5)cc4)CCOCC3)cc2)cn1` [Example 148, 4-[4-(2-aminopyrimidin-5-yl)phenyl]-N-{4-[(1,1-dioxidothiomorpholin-4-yl)methyl]phenyl}tetrahydro-2H-pyran-4-carboxamide], the pIC50 is 6.44 in experiment [1] and 5.40 in experiment [2].
As for `Cc1nc(-c2ccc(NC(=O)C3(c4ccc(-c5cnc(N)nc5)cc4)CCC3)nc2)cs1` [Example 131, 1-[4-(2-aminopyrimidin-5-yl)phenyl]-N-[5-(2-methyl-1,3-thiazol-4-yl)pyridin-2-yl]cyclobutanecarboxamide], the values for the pIC50 in experiment [1] and in experiment [2] were 8.66 and 6.38, respectively.
Taken in the same sequence, the figures for `Cn1cc(-c2ccc(NC(=O)C3(c4ccc(-c5cnc(N)nc5)cn4)CCC3)nc2)cn1` [Example 109, 1-[5-(2-aminopyrimidin-5-yl)pyridin-2-yl]-N-[5-(1-methyl-1H-pyrazol-4-yl)pyridin-2-yl]cyclobutanecarboxamide] were 8.03 and 5.68.
As to `N#Cc1cc(NC(=O)C2(c3ccc(-c4cnc(N)nc4)cc3)CCC2)ccn1` [Example 236, 1-[4-(2-aminopyrimidin-5-yl)phenyl]-N-(2-cyanopyridin-4-yl)cyclobutanecarboxamide], the pIC50 in experiment [1] is 8.46; in experiment [2] it was 6.54.
For `COc1ccc(-c2ccc(NC(=O)C(C)(c3ccc(-c4cnc(N)nc4)cc3)C(C)C)nc2)cn1` (centres unmarked) [Example 163, 2-[4-(2-aminopyrimidin-5-yl)phenyl]-N-(6'-methoxy-3,3'-bipyridin-6-yl)-2,3-dimethylbutanamide] the same measures were 8.17 and 6.39.
On to `O=C(Nc1ccc(Oc2ccccc2)cn1)C1(c2ccc(-c3cnc4[nH]ccc4c3)cc2)CCC1` [Example 198, N-(5-phenoxypyridin-2-yl)-1-[4-(1H-pyrrolo[2,3-b]pyridin-5-yl)phenyl]cyclobutane-carboxamide], for which the figures for the pIC50 in experiment [1] and in experiment [2] were 8.43 and 6.74, respectively.
Taken in the same sequence, the figures for `CC(C)C(C)(C(=O)Nc1ccc(Cl)cn1)c1ccc(-c2cnc(N)nc2)cc1` (centres unmarked) [Example 136, 2-[4-(2-aminopyrimidin-5-yl)phenyl]-N-(5-chloropyridin-2-yl)-2,3-dimethylbutanamide] were 7.99 and 5.33.
For the compound `CC(C)n1ncc2cc(NC(=O)C3(c4ccc(-c5cnc(N)nc5)cc4)CCOCC3)cnc21` [Example 68, 4-[4-(2-aminopyrimidin-5-yl)phenyl]-N-[1-(propan-2-yl)-1H-pyrazolo[3,4-b]pyridin-5-yl)tetrahydro-2H-pyran-4-carboxamide], the pIC50 in experiment [1] was 7.16; in experiment [2], 5.92.
As for `COc1cncc(-c2ccc(NC(=O)C3(c4ccc(-c5cnc(N)c(CO)c5)cc4)CCOCC3)nc2)c1` [Example 171, 4-{4-[6-amino-5-(hydroxymethyl)pyridin-3-yl]phenyl}-N-(5'-methoxy-3,3'-bipyridin-6-yl)tetrahydro-2H-pyran-4-carboxamide], the negative-log IC50 (pIC50) was 8.69 in experiment [1] and 6.25 in experiment [2].
For `N#Cc1ccc(NC(=O)C2(c3ccc(-c4cnc(N)nc4)cc3)CCC2)cc1` [Example 250, 1-[4-(2-aminopyrimidin-5-yl)phenyl]-N-(4-cyanophenyl)cyclobutanecarboxamide], the pIC50 is 8.49 in experiment [1] and 7.22 in experiment [2].
